# Results reported in publication PMC5218480 (PLoS ONE, 2017).
# System: MV-4-11 cells
# Assay: Gene expression microarray analysis (Affymetrix PrimeView) and GSEA
# Type: cell-based, human
# Design: RFU PODN (11730768_x_at) / Fold change /veh PODN (11730768_x_at) / RFU LINC00158 (11744669_a_at) / Fold change /veh LINC00158 (11744669_a_at) / RFU DUSP10 (11751237_a_at) / Fold change /veh DUSP10 (11751237_a_at) / RFU ID3 (11757404_x_at) / Fold change /veh ID3 (11757404_x_at) / RFU PLEKHG5 (11737974_s_at) / Fold change /veh PLEKHG5 (11737974_s_at) / RFU LRRC4B (11730491_at) / Fold change /veh LRRC4B (11730491_at) / RFU GIMAP4 (11747438_a_at) / Fold change /veh GIMAP4 (11747438_a_at) / RFU KRT8 (11758183_x_at) / Fold change /veh KRT8 (11758183_x_at) / RFU CNN1 (11734310_a_at) / Fold change /veh CNN1 (11734310_a_at) / RFU VPS37D (11726825_at) / Fold change /veh VPS37D (11726825_at) / RFU C10orf10 (11716522_x_at) / Fold change /veh C10orf10 (11716522_x_at) / RFU KIR2DL2 /// KIR2DL4 /// KIR2DL5A /// KIR2DL5B /// KIR2DS1 /// KIR2DS2 /// KIR2DS3 /// KIR2DS4 /// KIR3DL3 /// KIR3DL3 /// KIR3DS1 (11738374_at) / Fold change /veh KIR2DL2 /// KIR2DL4 /// KIR2DL5A /// KIR2DL5B /// KIR2DS1 /// KIR2DS2 /// KIR2DS3 /// KIR2DS4 /// KIR3DL3 /// KIR3DL3 /// KIR3DS1 (11738374_at) / RFU C1QL1 (11718748_at) / Fold change /veh C1QL1 (11718748_at) / RFU TMPRSS4 (11747572_a_at) / Fold change /veh TMPRSS4 (11747572_a_at) / RFU HAMP (11756126_x_at) / Fold change /veh HAMP (11756126_x_at) / RFU RNFT2 (11725882_a_at) / Fold change /veh RNFT2 (11725882_a_at) / RFU NR4A2 (11747474_a_at) / Fold change /veh NR4A2 (11747474_a_at) / RFU ABCC12 (11746883_a_at) / Fold change /veh ABCC12 (11746883_a_at) / RFU TMEM136 (11760407_x_at) / Fold change /veh TMEM136 (11760407_x_at) / RFU CLDN22 /// WWC2 (11732394_at) / Fold change /veh CLDN22 /// WWC2 (11732394_at) / RFU HLA-DPB1 (11760878_x_at) / Fold change /veh HLA-DPB1 (11760878_x_at) / RFU SPINT1 (11716480_a_at) / Fold change /veh SPINT1 (11716480_a_at) / RFU GAP43 (11754022_s_at) / Fold change /veh GAP43 (11754022_s_at) / RFU A4GNT (11735810_at) / Fold change /veh A4GNT (11735810_at) / RFU PRB3 (11715151_x_at) / Fold change /veh PRB3 (11715151_x_at) / RFU TUBB4B (11761932_at) / Fold change /veh TUBB4B (11761932_at) / RFU CAPN14 (11732068_a_at) / Fold change /veh CAPN14 (11732068_a_at) / RFU TMCC2 (11721928_a_at) / Fold change /veh TMCC2 (11721928_a_at) / RFU IRGQ (11745062_a_at) / Fold change /veh IRGQ (11745062_a_at) / RFU FAM174B (11720279_a_at) / Fold change /veh FAM174B (11720279_a_at) / RFU TMPRSS4 (11748680_a_at) / Fold change /veh TMPRSS4 (11748680_a_at) / RFU FAM212B (11763350_a_at) / Fold change /veh FAM212B (11763350_a_at) / RFU PLEKHG5 (11743358_a_at) / Fold change /veh PLEKHG5 (11743358_a_at) / RFU ZSCAN30 (11745921_a_at) / Fold change /veh ZSCAN30 (11745921_a_at) / RFU CMKLR1 (11741424_a_at) / Fold change /veh CMKLR1 (11741424_a_at) / RFU LOC101060620 /// MAPK8IP1 (11723275_at) / Fold change /veh LOC101060620 /// MAPK8IP1 (11723275_at) / RFU SPTSSB (11747773_x_at) / Fold change /veh SPTSSB (11747773_x_at) / RFU PRSS12 (11739890_at) / Fold change /veh PRSS12 (11739890_at) / RFU BIN1 (11741810_x_at) / Fold change /veh BIN1 (11741810_x_at) / RFU WNT11 (11732464_a_at) / Fold change /veh WNT11 (11732464_a_at) / RFU C10orf10 (11716521_a_at) / Fold change /veh C10orf10 (11716521_a_at) / RFU C5orf56 (11738089_at) / Fold change /veh C5orf56 (11738089_at) / RFU CYB561 (11721691_x_at) / Fold change /veh CYB561 (11721691_x_at) / RFU ANKRD19P (11752326_a_at) / Fold change /veh ANKRD19P (11752326_a_at) / RFU OR2T12 /// OR2T33 /// OR2T8 (11738714_s_at) / Fold change /veh OR2T12 /// OR2T33 /// OR2T8 (11738714_s_at) / RFU VCAN (11748164_a_at) / Fold change /veh VCAN (11748164_a_at) / RFU JSRP1 (11732532_at) / Fold change /veh JSRP1 (11732532_at) / RFU KRTAP10-11 (11738290_x_at) / Fold change /veh KRTAP10-11 (11738290_x_at) / RFU MYO3A (11730013_a_at) / Fold change /veh MYO3A (11730013_a_at) / RFU EBF3 (11725865_a_at) / Fold change /veh EBF3 (11725865_a_at) / RFU CAMK2N1 (11719241_x_at) / Fold change /veh CAMK2N1 (11719241_x_at) / RFU C5orf56 (11738088_a_at) / Fold change /veh C5orf56 (11738088_a_at) / RFU OLFML3 (11715873_a_at) / Fold change /veh OLFML3 (11715873_a_at) / RFU LOC100653217 /// NTM (11731650_a_at) / Fold change /veh LOC100653217 /// NTM (11731650_a_at) / RFU MAPK11 (11762145_a_at) / Fold change /veh MAPK11 (11762145_a_at) / RFU FIZ1 (11724087_x_at) / Fold change /veh FIZ1 (11724087_x_at) / RFU OASL (11726364_x_at) / Fold change /veh OASL (11726364_x_at) / RFU SOX15 (11748057_x_at) / Fold change /veh SOX15 (11748057_x_at) / RFU CD79A (11719716_a_at) / Fold change /veh CD79A (11719716_a_at) / RFU HIST1H1D (11736915_at) / Fold change /veh HIST1H1D (11736915_at) / RFU CASKIN2 (11723855_a_at) / Fold change /veh CASKIN2 (11723855_a_at) / RFU LOC730098 (11760151_x_at) / Fold change /veh LOC730098 (11760151_x_at) / RFU OR4N2 (11742367_at) / Fold change /veh OR4N2 (11742367_at) / RFU PRRT2 (11749266_a_at) / Fold change /veh PRRT2 (11749266_a_at) / RFU SNX32 (11753110_a_at) / Fold change /veh SNX32 (11753110_a_at) / RFU CDHR5 (11726645_a_at) / Fold change /veh CDHR5 (11726645_a_at) / RFU RCAN1 (11760418_a_at) / Fold change /veh RCAN1 (11760418_a_at) / RFU FAM167A (11723789_a_at) / Fold change /veh FAM167A (11723789_a_at) / RFU FAM26E (11764081_at) / Fold change /veh FAM26E (11764081_at) / RFU ISYNA1 (11749810_s_at) / Fold change /veh ISYNA1 (11749810_s_at) / RFU ACY1 (11761880_at) / Fold change /veh ACY1 (11761880_at) / RFU 11764098_at / Fold change /veh 11764098_at / RFU SAMD14 (11745864_x_at) / Fold change /veh SAMD14 (11745864_x_at) / RFU NPB (11741838_a_at) / Fold change /veh NPB (11741838_a_at) / RFU TMPRSS6 (11731388_a_at) / Fold change /veh TMPRSS6 (11731388_a_at) / RFU KRTAP10-2 (11738614_at) / Fold change /veh KRTAP10-2 (11738614_at) / RFU ARHGAP8 /// PRR5-ARHGAP8 (11727945_x_at) / Fold change /veh ARHGAP8 /// PRR5-ARHGAP8 (11727945_x_at) / RFU KRTAP5-7 /// NADSYN1 (11734609_at) / Fold change /veh KRTAP5-7 /// NADSYN1 (11734609_at) / RFU RASL12 (11751679_a_at) / Fold change /veh RASL12 (11751679_a_at) / RFU CDKN2B (11736163_a_at) / Fold change /veh CDKN2B (11736163_a_at) / RFU PRF1 (11729649_at) / Fold change /veh PRF1 (11729649_at) / RFU, ZNF638 /// ZNF638-IT1 / Fold change vs veh, ZNF638 /// ZNF638-IT1 / RFU, PANK3 / Fold change vs veh, PANK3 / RFU, SH3YL1 / Fold change vs veh, SH3YL1 / RFU, ZEB2 / Fold change vs veh, ZEB2 / RFU, NRIP1 / Fold change vs veh, NRIP1 / RFU, PTTG1IP / Fold change vs veh, PTTG1IP / RFU, CAPN2 / Fold change vs veh, CAPN2 / RFU, MED14 / Fold change vs veh, MED14 / RFU, SNORA58 / Fold change vs veh, SNORA58 / RFU, C1orf63 / Fold change vs veh, C1orf63 / RFU, LRRFIP1 / Fold change vs veh, LRRFIP1 / RFU, NDUFAF7 / Fold change vs veh, NDUFAF7 / RFU, SLC12A2 / Fold change vs veh, SLC12A2 / RFU, IBTK / Fold change vs veh, IBTK / RFU, ESF1 / Fold change vs veh, ESF1 / Fold change vs veh, TMEM50B / RFU, TAOK1 / Fold change vs veh, TAOK1 / RFU, ACBD3 / Fold change vs veh, ACBD3 / RFU, TMA16 / Fold change vs veh, TMA16 / RFU, RWDD3 / Fold change vs veh, RWDD3 / RFU, BCAT1 / Fold change vs veh, BCAT1 / RFU, EDEM3 / Fold change vs veh, EDEM3 / RFU, TMEM33 / Fold change vs veh, TMEM33 / RFU, WDR75 / Fold change vs veh, WDR75 / RFU, AHCTF1 / Fold change vs veh, AHCTF1 / RFU, TFRC / Fold change vs veh, TFRC / RFU, ZDHHC17 / Fold change vs veh, ZDHHC17 / RFU, NOM1 / Fold change vs veh, NOM1 / RFU, ARL8B / Fold change vs veh, ARL8B / RFU, ZBTB11 / Fold change vs veh, ZBTB11 / RFU, TAMM41 / Fold change vs veh, TAMM41 / RFU, KIAA1704 /// LOC100996395 / Fold change vs veh, KIAA1704 /// LOC100996395 / RFU, ING1 / Fold change vs veh, ING1 / RFU, TRMT61B / Fold change vs veh, TRMT61B / RFU, FUBP3 / Fold change vs veh, FUBP3 / RFU, TP53 / Fold change vs veh, TP53 / RFU, TNKS2 / Fold change vs veh, TNKS2 / RFU, ZFP14 / Fold change vs veh, ZFP14 / RFU, ACTR2 / Fold change vs veh, ACTR2 / RFU, PPP3R1 / Fold change vs veh, PPP3R1 / RFU, PIK3R1 / Fold change vs veh, PIK3R1 / RFU, HNRNPA1 / Fold change vs veh, HNRNPA1 / RFU, RNF170 / Fold change vs veh, RNF170 / RFU, ZNF28 / Fold change vs veh, ZNF28 / RFU, RNGTT / Fold change vs veh, RNGTT / RFU, OGT / Fold change vs veh, OGT / RFU, BRD1 / Fold change vs veh, BRD1 / RFU, MARS / Fold change vs veh, MARS / RFU, ZNF655 / Fold change vs veh, ZNF655 / RFU, FAHD1 / Fold change vs veh, FAHD1 / RFU, BDP1 / Fold change vs veh, BDP1 / RFU, LRRCC1 / Fold change vs veh, LRRCC1 / RFU, ARID1A / Fold change vs veh, ARID1A / RFU, ZNF146 / Fold change vs veh, ZNF146 / RFU, ZNF330 / Fold change vs veh, ZNF330 / RFU, GPN3 / Fold change vs veh, GPN3 / RFU, C9orf123 / Fold change vs veh, C9orf123 / RFU, N4BP2L2 / Fold change vs veh, N4BP2L2 / RFU, ARFIP1 / Fold change vs veh, ARFIP1 / RFU, FAM179B / Fold change vs veh, FAM179B / RFU, BCL10 / Fold change vs veh, BCL10 / RFU, UHRF1BP1L / Fold change vs veh, UHRF1BP1L / RFU, BET1 / Fold change vs veh, BET1 / RFU, CNOT2 / Fold change vs veh, CNOT2 / RFU, ZNF268 / Fold change vs veh, ZNF268 / Fold change vs veh, ZNF507 / RFU, DGCR2 / Fold change vs veh, DGCR2 / RFU, WDSUB1 / Fold change vs veh, WDSUB1 / Fold change vs veh, HSP90B1 /// MIR3652 / RFU, ADSS / Fold change vs veh, ADSS / RFU, GK / Fold change vs veh, GK / RFU, ZNF148 / Fold change vs veh, ZNF148 / RFU, TAF9 / Fold change vs veh, TAF9 / RFU, SLC1A5 / Fold change vs veh, SLC1A5 / RFU, SLMO2 / Fold change vs veh, SLMO2 / RFU, ABCC4 / Fold change vs veh, ABCC4 / RFU, LOC101060439 /// RAP1B / Fold change vs veh, LOC101060439 /// RAP1B / RFU, RFX7 / Fold change vs veh, RFX7 / RFU, GTPBP10 / Fold change vs veh, GTPBP10 / RFU, CNEP1R1 / Fold change vs veh, CNEP1R1 / RFU, BIVM-ERCC5 /// ERCC5 / Fold change vs veh, BIVM-ERCC5 /// ERCC5 / RFU, ILF3 / Fold change vs veh, ILF3 / RFU 11762660_at / Fold change /veh 11762660_at / RFU VCAN (11757783_s_at) / Fold change /veh VCAN (11757783_s_at) / RFU DDX43 (11728927_at) / Fold change /veh DDX43 (11728927_at) / RFU KRT8 (11758188_x_at) / Fold change /veh KRT8 (11758188_x_at) / RFU NKD1 (11759106_at) / Fold change /veh NKD1 (11759106_at) / RFU SRD5A1 (11742802_a_at) / Fold change /veh SRD5A1 (11742802_a_at) / RFU TPSAB1 /// TPSB2 (11721975_s_at) / Fold change /veh TPSAB1 /// TPSB2 (11721975_s_at) / RFU GSTM3 (11746129_a_at) / Fold change /veh GSTM3 (11746129_a_at) / RFU IL23R (11737362_x_at) / Fold change /veh IL23R (11737362_x_at) / RFU TMEM51 (11727254_a_at) / Fold change /veh TMEM51 (11727254_a_at) / RFU PIWIL2 (11732686_x_at) / Fold change /veh PIWIL2 (11732686_x_at) / RFU ORM1 (11744905_x_at) / Fold change /veh ORM1 (11744905_x_at) / RFU CCDC152 (11743942_at) / Fold change /veh CCDC152 (11743942_at) / RFU ECM1 (11717891_a_at) / Fold change /veh ECM1 (11717891_a_at) / RFU IL23R (11748794_a_at) / Fold change /veh IL23R (11748794_a_at) / RFU TNFAIP8L3 (11732012_x_at) / Fold change /veh TNFAIP8L3 (11732012_x_at) / RFU MBOAT4 (11741988_at) / Fold change /veh MBOAT4 (11741988_at) / RFU 11764193_at / Fold change /veh 11764193_at / RFU TMEM53 (11763286_at) / Fold change /veh TMEM53 (11763286_at) / RFU MAGEB2 (11727129_at) / Fold change /veh MAGEB2 (11727129_at) / RFU TMEM200A (11744735_a_at) / Fold change /veh TMEM200A (11744735_a_at) / RFU CCDC152 (11751479_a_at) / Fold change /veh CCDC152 (11751479_a_at) / RFU FAM211A (11726209_a_at) / Fold change /veh FAM211A (11726209_a_at) / RFU RGS16 (11746705_a_at) / Fold change /veh RGS16 (11746705_a_at) / RFU VCAN (11755009_s_at) / Fold change /veh VCAN (11755009_s_at) / RFU RHOB (11743442_s_at) / Fold change /veh RHOB (11743442_s_at) / RFU RGS16 (11720943_a_at) / Fold change /veh RGS16 (11720943_a_at) / RFU RGS16 (11720944_at) / Fold change /veh RGS16 (11720944_at) / RFU, VPS4B / Fold change vs veh, VPS4B / RFU, CREB1 / Fold change vs veh, CREB1 / RFU, DNAJC13 / Fold change vs veh, DNAJC13 / RFU, GNAQ / Fold change vs veh, GNAQ / RFU, CDK5R1 / Fold change vs veh, CDK5R1 / RFU, ZRANB3 / Fold change vs veh, ZRANB3 / RFU, CUL4A / Fold change vs veh, CUL4A / RFU, CCNY / Fold change vs veh, CCNY / RFU, UFL1 / Fold change vs veh, UFL1 / RFU, COG3 / Fold change vs veh, COG3 / RFU, DIAPH2 / Fold change vs veh, DIAPH2 / RFU, SKA2 / Fold change vs veh, SKA2 / RFU, AFF3 / Fold change vs veh, AFF3 / RFU, LMF1 / Fold change vs veh, LMF1 / RFU, IPO11 / Fold change vs veh, IPO11 / RFU, DFFB / Fold change vs veh, DFFB / RFU, FOXP1 / Fold change vs veh, FOXP1 / RFU, CARD8 / Fold change vs veh, CARD8 / RFU, STRN3 / Fold change vs veh, STRN3 / RFU, ADK / Fold change vs veh, ADK / RFU, RASSF2 / Fold change vs veh, RASSF2 / RFU, WIPF1 / Fold change vs veh, WIPF1 / RFU, LARP1B / Fold change vs veh, LARP1B / RFU, RASA1 / Fold change vs veh, RASA1 / RFU, RB1 / Fold change vs veh, RB1 / RFU, PPFIA1 / Fold change vs veh, PPFIA1 / RFU, MAT2A / Fold change vs veh, MAT2A / RFU, CCT5 / Fold change vs veh, CCT5 / RFU, WDR92 / Fold change vs veh, WDR92 / RFU, CUX1 / Fold change vs veh, CUX1 / RFU, TTC7A / Fold change vs veh, TTC7A / RFU, TMEM135 / Fold change vs veh, TMEM135 / RFU, DEPTOR / Fold change vs veh, DEPTOR / RFU, CPM / Fold change vs veh, CPM / RFU, DNAJB6 / Fold change vs veh, DNAJB6 / RFU, CACNA2D3 / Fold change vs veh, CACNA2D3 / RFU, DTX4 / Fold change vs veh, DTX4 / RFU, TFCP2 / Fold change vs veh, TFCP2 / RFU, GMCL1 /// GMCL1P1 / Fold change vs veh, GMCL1 /// GMCL1P1 / RFU, AEBP2 / Fold change vs veh, AEBP2 / RFU, SNHG1 /// SNORD22 /// SNORD25 /// SNORD26 /// SNORD27 /// SNORD28 /// SNORD29 /// SNORD31 / Fold change vs veh, SNHG1 /// SNORD22 /// SNORD25 /// SNORD26 /// SNORD27 /// SNORD28 /// SNORD29 /// SNORD31 / Fold change (Aza/veh), C12orf56 (ProbeSet 11735607_a_at) / Fold change (ACY-1035/veh), C12orf56 (ProbeSet 11735607_a_at) / Fold change (Aza/veh), FGFR1OP (ProbeSet 11751329_s_at) / Fold change (ACY-1035/veh), FGFR1OP (ProbeSet 11751329_s_at) / Fold change (Aza/veh), VPS36 (ProbeSet 11739960_a_at) / Fold change (ACY-1035/veh), VPS36 (ProbeSet 11739960_a_at) / RFU SYPL1 (11715823_x_at) / Fold change /veh SYPL1 (11715823_x_at) / RFU IGFBP7 (11715501_s_at) / Fold change /veh IGFBP7 (11715501_s_at) / RFU REEP3 (11722064_at) / Fold change /veh REEP3 (11722064_at) / RFU IGLL1 (11728026_x_at) / Fold change /veh IGLL1 (11728026_x_at): dose or concentration left out as unconfirmed
# Conditions: MV-4-11 cells, 48 hours
smiles,measurement,value
Nc1ccc(-c2cccs2)cc1NC(=O)c1ccc2c(c1)cc(C1CC1)n2CCN1CCOCC1 [ACY-1035],RFU FAM211A (11726209_a_at),5.89 RFU
